In US20120118197A1, “BUILDING MATERIALS RESISTANT TO ROOT PENETRATION AND METHODS FOR MAKING THE SAME” (LANXESS DEUTSCHLAND GMBH, priority 2008, published 2012):

Tested on: Lupinus albus
Test: Greenhouse root penetration test in bitumen membranes (DIN CEN/TS 14416)
Conditions: for No. of emerged plants average: 35 seeds planted; for No. of roots grew into bitumen average / No. of roots stopped at bitumen average / Plant height average: six weeks; for No. of roots grew thoughout bitumen average: average of 3 replicates
Protocol: A greenhouse study was carried out to compare the effectiveness of different herbicides to prevent root penetration in bitumen roof sealing membranes without killing the plant or adversely affecting it.
The herbicides were incorporated into bitumen 160/220 (thickness 4.5-6 mm) during a standard bitumen manufacturing process. The manufacturing process comprised a step of heating the bitumen mixture before a fibreglass grid was incorporated as a reinforcement of the bitumen membrane.
The herbicides Napropamide (N,N-Diethyl-2-(1-naphthyloxy)propanamide, CAS No. (S)-(+) isomer: 41643-36-1) and Prodiamine (2,4-dinitro-N3,N3-dipropyl-6-(trifluoromethyl)-1,3-benzenediamine, CAS No. 29091-21-2) were formulated as oil dispersion with 25% active ingredient. The (R)-2-(4-chlorine-o-tolyloxy)propionic acid ethyl-hexylester (trader name: ‘HERBITECT™’, 2 ethylhexyl-2-(R)-2-(4-chloro-o-tolylory)propionate) may be obtained from Büsscher & Hoffman, Fabrikstrasse 2, A-4470 Enns, Austria and was formulated as oil dispersion with approx. 95% active ingredient.
Resistance of the bitumen against root penetration was evaluated according to the standard test method known in the art as: DIN CEN/TS 14416 ‘Geosynthetische Dichtungsbahnen—Prüfverfahren zur Bestimmung des Widerstandes gegen Wurzeln, Deutsche Fassung CEN/TS14416:2005’. Bitumen membranes containing Napropamide and Prodiamine, respectively were evaluated at active ingredient concentrations of 0.5%, 0.25%, 0.125% and 0.0625% based on raw bitumen. […] Bitumen membranes without incorporated herbicide were used as a control. Three discs with a diameter of 25 cm were punched out of each bitumen membrane and used for the study.
Unglazed, earthenware flowerpots approx. 22 cm high were filled with a soil-mixture [soil low in calcium/TKS1 (3:1)] to 10 cm from the bottom of the pot. Bitumen discs were put on top of the soil layer and the gap between the disc and the pot was sealed with aquarium silicone sealant. The diameter of the discs was approximately that of the internal diameter halfway up the pots. The bitumen discs were covered with approximately 9 cm soil and a plastic watering pipe was insert into the soil of each pot. Thirty five lupine seeds (Lupinus albus) were planted in the soil and covered with about 1 cm of soil. Two pots filled only with soil were used as a control for seed germination and plant growth.
The seeds were growing in a greenhouse under artificial light (14 h photoperiod, 20-22° C., relative humidity 60%). The soil above the bitumen disc was watered with rain water led through the plastic pipe into the pots so that the surface of the bitumen was kept damp. The soil beneath the bitumen discs was kept moist by standing from time to time the pots in water-filled trays. After six weeks the soil of the pots was removed from the roots by gentle running water. The bottom side of bitumen membranes was inspected to see whether any roots have grown through the bitumen, and the upper side was examined to assess the number of roots penetrating the bitumen and the depth of penetration. During the assessments, bitumen discs, roots, and above ground parts of the plants were recorded.

[1] = 0.38% active ingredient based on raw bitumen
[2] = 0.0625% active ingredient based on raw bitumen
[3] = 0.0625% active ingredient, replicate 1
[4] = 0.0625% active ingredient, replicate 2
[5] = 0.0625% active ingredient, replicate 3
[6] = 0.125% active ingredient based on raw bitumen
[7] = 0.125% active ingredient, replicate 1
[8] = 0.125% active ingredient, replicate 2
[9] = 0.125% active ingredient, replicate 3
[10] = 0.25% active ingredient based on raw bitumen
[11] = 0.25% active ingredient, replicate 1
[12] = 0.25% active ingredient, replicate 2
[13] = 0.25% active ingredient, replicate 3
[14] = 0.5% active ingredient based on raw bitumen
[15] = 0.5% active ingredient, replicate 1
[16] = 0.5% active ingredient, replicate 2
[17] = 0.5% active ingredient, replicate 3

Row | Compound | No. of roots grew into bitumen average [2] | No. of roots stopped at bitumen average [2] | No. of roots grew thoughout bitumen average (0.0625% active ingredient) | No. of roots grew thoughout bitumen (3 replicates shown) [3] | No. of roots grew thoughout bitumen (3 replicates shown) [4] | No. of roots grew thoughout bitumen (3 replicates shown) [5] | No. of roots grew into bitumen average [6] | No. of roots stopped at bitumen average [6] | No. of roots grew thoughout bitumen average (0.125% active ingredient) | No. of roots grew thoughout bitumen (3 replicates shown) [7] | No. of roots grew thoughout bitumen (3 replicates shown) [8] | No. of roots grew thoughout bitumen (3 replicates shown) [9] | No. of roots grew into bitumen average [10] | No. of roots stopped at bitumen average [10] | No. of roots grew thoughout bitumen average (0.25% active ingredient) | No. of roots grew thoughout bitumen (3 replicates shown) [11] | No. of roots grew thoughout bitumen (3 replicates shown) [12] | No. of roots grew thoughout bitumen (3 replicates shown) [13] | No. of roots grew into bitumen average [14] | No. of roots stopped at bitumen average [14] | also measured
1 | CCCCC(CC)COC(=O)[C@@H](C)Oc1ccc(Cl)cc1C (stereo partly drawn) [Herbitect, (R)-2-(4-chlorine-o-tolyloxy)propionic acid ethyl-hexylester] | – | – | – | – | – | – | – | – | – | – | – | – | – | – | – | – | – | – | – | – | No. of emerged plants average [1]: 33.0; No. of roots grew into bitumen average [1]: 46.7; No. of roots stopped at bitumen average [1]: approx. >50; Plant height average [1]: 34.0 cm; No. of roots grew thoughout bitumen average (0.38% active ingredient): 0; No. of roots grew thoughout bitumen (3 replicates shown) (0.38% active ingredient, replicate 1): 0; No. of roots grew thoughout bitumen (3 replicates shown) (0.38% active ingredient, replicate 2): 0; No. of roots grew thoughout bitumen (3 replicates shown) (0.38% active ingredient, replicate 3): 0; Penetration of upper side of bitumen compared to the untreated bitumen (at 0.38%): penetrated to less extent; Root penetration throughout bitumen (standard product, 0.38%): without any root penetration
2 | CCN(CC)C(=O)C(C)Oc1cccc2ccccc12 (centres unmarked) [Napropamide, N,N-Diethyl-2-(1-naphthyloxy)propanamide] | approx. >50 | approx. >50 | 1.3 | 1 | 1 | 2 | approx. >50 | approx. >50 | 0.7 | 0 | 2 | 0 | 40.0 | approx. >50 | 0.3 | 0 | 0 | 1 | 30.3 | approx. >50 | No. of roots grew thoughout bitumen average (0.5% active ingredient): 0.3; No. of roots grew thoughout bitumen (3 replicates shown) [15]: 1; No. of roots grew thoughout bitumen (3 replicates shown) [16]: 0; No. of roots grew thoughout bitumen (3 replicates shown) [17]: 0; Penetration of upper side of bitumen compared to the untreated bitumen (at 0.5% and 0.25%, respectively): penetrated to less extent; Root elongation through bitumen (at 0.5% and 0.25%, exception in a replicate showing one root penetration): stopped completely; Harm to the remaining plant parts (in vivo): not harmful; Effectiveness to prevent root penetration of bitumen membranes (overall conclusion of the study): highly effective
3 | CCCN(CCC)c1c([N+](=O)[O-])cc(C(F)(F)F)c(N)c1[N+](=O)[O-] [Prodiamine, 2,4-dinitro-N3,N3-dipropyl-6-(trifluoromethyl)-1,3-benzenediamine] | approx. >50 | approx. >50 | 20.3 | 27 | 16 | 18 | approx. >50 | approx. >50 | 12.0 | 12 | 18 | 6 | approx. >50 | approx. >50 | 6.7 | 9 | 6 | 5 | approx. >50 | approx. >50 | No. of emerged plants average [2]: 33.7; Plant height average [2]: 33.7 cm; No. of emerged plants average [6]: 34.7; Plant height average [6]: 32.3 cm; No. of emerged plants average [10]: 34.3; Plant height average [10]: 31.0 cm; No. of emerged plants average [14]: 34.3; Plant height average [14]: 34.0 cm; No. of roots grew thoughout bitumen average (0.5% active ingredient): 2.7; No. of roots grew thoughout bitumen (3 replicates shown) [15]: 1; No. of roots grew thoughout bitumen (3 replicates shown) [16]: 3; No. of roots grew thoughout bitumen (3 replicates shown) [17]: 4; Effectiveness to restrict root growth throughout bitumen (compared to Napropamide and the standard product HERBITECT): slightly less effective
